Measured values from the supplement of paper PMC11208160.

Assay: recombinant UMI read abundance after kanamycin selection (control-corrected) (log10(CPM+1)); higher = more efficient recombination; extreme values may be limits of the assay; sequences stand for … in AGTGCAGAGAAAATCGGCCAGTTTTCTCTGCCTGCAGTCCGCATGCCGTGGGACCCCTTGGGTTCTAACCTGTTGCCTAGATTTATGCAGCGGACTGCCTTTCTCCCAAAGTGATAAACCGG…AGGTTGGTTTCACT; site = the 11-nt donor
How it was run: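 Values are reported as log10(CPM+1), obtained by converting sequencing counts to CPM, averaging replicates and scaling by control-derived factors. The counts came from recombinant UMIs amplified by PCR across the donor–target junction. These UMIs came from a pooled Escherichia coli screen of donor and donor-binding-loop pairs for the IS621 bridge recombinase, plated with IPTG (0.07 mM) plus kanamycin or left unselected, in two replicates each.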
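Further: IS621 bridge recombinase in Escherichia coli cells against a fixed T5 target plasmid.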

In order of rising “recombinant UMI read abundance (log10)” value:
1. CGAACATCATGGACCGGTTTTCCCGGTAATCCGTATTTGCT (site CGATCATCTAG)  0
2. CGAACATCATGGACCGGTTTTCCCGGTAATCCGTATTTGCT (site CGCACATCTAG)  0
3. CGAACATCATGGACCGGTTTTCCCGGTAATCCGTATTTGCT (site CGTACATCTAG)  0
4. CGACAATCATGGACCGGTTTTCCCGGTAATCCGTATTTGCT (site CGATCATCTAG)  0
5. CGACCATCATGGACCGGTTTTCCCGGTAATCCGTATTTGCG (site CGATCATCTAG)  0
6. CGAGATCCATGGACCGGTTTTCCCGGTAATCCGTATTTGTT (site CGGAATCCTAA)  0
7. CGAGCTTCATGGACCGGTTTTCCCGGTAATCCGTATTTGCT (site CGATCATCTAG)  0
8. CGAGTACCATGGACCGGTTTTCCCGGTAATCCGTATTTGAC (site CGAGTACCTGT)  0
9. CGAGTACCATGGACCGGTTTTCCCGGTAATCCGTATTTGAC (site CTAGTATCTGT)  0
10. CGAGTATCATGGACCGGTTTTCCCGGTAATCCGTATTTGCT (site CGATCATCTAG)  0
11. CGATAATCATGGACCGGTTTTCCCGGTAATCCGTATTTGCT (site CGATCATCTAG)  0
12. CGATAATCATGGACCGGTTTTCCCGGTAATCCGTATTTGCT (site CGATGATCTAG)  0
13. CGATCAACATGGACCGGTTTTCCCGGTAATCCGTATTTGCT (site CGATCACCTAG)  0
14. CGATCAACATGGACCGGTTTTCCCGGTAATCCGTATTTGCT (site CGATCAGCTAG)  0
15. CGATCAACATGGACCGGTTTTCCCGGTAATCCGTATTTGCT (site CGATCATCTAG)  0
16. CGATCATCATGGACCGGTTTTCCCGGTAATCCGTATTTGAT (site CGATCATCTAA)  0
17. CGATCATCATGGACCGGTTTTCCCGGTAATCCGTATTTGAT (site CGATCATCTAG)  0
18. CGATCATCATGGACCGGTTTTCCCGGTAATCCGTATTTGCC (site CGATCATCTAG)  0
19. CGATCATCATGGACCGGTTTTCCCGGTAATCCGTATTTGCC (site CGATCATCTCG)  0.00333
20. CGAGCACCATGGACCGGTTTTCCCGGTAATCCGTATTTGGG (site CGAGAACCTCC)  0.00342
21. CGACGAGCATGGACCGGTTTTCCCGGTAATCCGTATTTGGG (site ACGTCGACTTT)  0.00438
22. CGATAGACATGGACCGGTTTTCCCGGTAATCCGTATTTGAG (site CGCTAGACTCT)  0.00552
23. CGATAGACATGGACCGGTTTTCCCGGTAATCCGTATTTGTT (site CGATTGACTAA)  0.00602
24. CGACCGACATGGACCGGTTTTCCCGGTAATCCGTATTTGTT (site CGATCGACTAA)  0.00843
25. CGACCGACATGGACCGGTTTTCCCGGTAATCCGTATTTGTT (site CGAGCGACTAA)  0.00884
26. CGAGCACCATGGACCGGTTTTCCCGGTAATCCGTATTTGGG (site CGAGGACCTCC)  0.0108
27. CGACGACCATGGACCGGTTTTCCCGGTAATCCGTATTTGGG (site CGACGACCTCC)  0.0126
28. CGAGCACCATGGACCGGTTTTCCCGGTAATCCGTATTTGGG (site CGAGTACCTCC)  0.0136
29. CGATAGACATGGACCGGTTTTCCCGGTAATCCGTATTTGTT (site CGATGGACTAA)  0.0144
30. CGACGACCATGGACCGGTTTTCCCGGTAATCCGTATTTGGG (site CGAAGACCTCC)  0.0167
31. CGAGCACCATGGACCGGTTTTCCCGGTAATCCGTATTTGGG (site CGAGCACCTCC)  0.0175
32. CGACCGACATGGACCGGTTTTCCCGGTAATCCGTATTTGTT (site CGAACGACTAA)  0.0187
33. CGAGTGGCATGGACCGGTTTTCCCGGTAATCCGTATTTGGT (site TGAGTGGCTAC)  0.0187
34. CGAGTGGCATGGACCGGTTTTCCCGGTAATCCGTATTTGGT (site GGAGTGGCTAC)  0.0253
35. CGACGACCATGGACCGGTTTTCCCGGTAATCCGTATTTGGG (site CGAGGACCTCC)  0.0314
36. CGACGACCATGGACCGGTTTTCCCGGTAATCCGTATTTGGG (site CGATGACCTCC)  0.0338
37. CGATAGACATGGACCGGTTTTCCCGGTAATCCGTATTTGTT (site CGATCGACTAA)  0.04
38. CGACCGACATGGACCGGTTTTCCCGGTAATCCGTATTTGTT (site CGACCGACTAA)  0.195
39. CGATCATCATGGACCGGTTTTCCCGGTAATCCGTATTTGAT (site CGATCATCTAC)  0.213
40. CGATAATCATGGACCGGTTTTCCCGGTAATCCGTATTTGCT (site CGATTATCTAG)  0.415
41. CGAACATCATGGACCGGTTTTCCCGGTAATCCGTATTTGCT (site CGACCATCTAG)  0.469
42. CGAGTGTCATGGACCGGTTTTCCCGGTAATCCGTATTTGAC (site CTAGTATCTGT)  0.545
43. CGAGTGGCATGGACCGGTTTTCCCGGTAATCCGTATTTGGT (site AGAGTGGCTAC)  0.574
44. CGAACATCATGGACCGGTTTTCCCGGTAATCCGTATTTGCT (site CGGACATCTAG)  0.583
45. CGATCATCATGGACCGGTTTTCCCGGTAATCCGTATTTGAT (site CGATCATCTAT)  0.727
46. CGATAGACATGGACCGGTTTTCCCGGTAATCCGTATTTGAG (site CGGTAGACTCT)  0.902
47. CGATAGACATGGACCGGTTTTCCCGGTAATCCGTATTTGAG (site CGTTAGACTCT)  0.979
48. CGAGTGGCATGGACCGGTTTTCCCGGTAATCCGTATTTGGT (site CGAGTGGCTAC)  1.1
49. CGAAGCCCATGGACCGGTTTTCCCGGTAATCCGTATTTGAT (site CGAAGCCCTAT)  1.22
50. CGACCCACATGGACCGGTTTTCCCGGTAATCCGTATTTGGT (site CGACCCACTAC)  1.23
51. CGAACATCATGGACCGGTTTTCCCGGTAATCCGTATTTGCT (site CGAGCATCTAG)  1.39
52. CGAGATCCATGGACCGGTTTTCCCGGTAATCCGTATTTGTT (site CGAGATCCTAA)  1.4
53. CGACTGGCATGGACCGGTTTTCCCGGTAATCCGTATTTGTA (site CGACTGGCTTA)  1.65
54. CGAGCGACATGGACCGGTTTTCCCGGTAATCCGTATTTGAA (site CGAGCGACTTT)  1.74
55. CGAGCTTCATGGACCGGTTTTCCCGGTAATCCGTATTTGCT (site CGAGCTTCTAG)  1.85
56. CGAACTACATGGACCGGTTTTCCCGGTAATCCGTATTTGAG (site CGAACTACTCT)  1.95
57. CGAGTATCATGGACCGGTTTTCCCGGTAATCCGTATTTGAC (site CCAGTATCTGT)  1.99
58. CGATAGACATGGACCGGTTTTCCCGGTAATCCGTATTTGTT (site CGATAGACTAA)  2
59. CGAGTATCATGGACCGGTTTTCCCGGTAATCCGTATTTGAC (site CTAGTATCTGT)  2.01
60. CGAACATCATGGACCGGTTTTCCCGGTAATCCGTATTTGCT (site CGAACATCTAG)  2.13
61. CGAGTGTCATGGACCGGTTTTCCCGGTAATCCGTATTTGAC (site CGAGTGTCTGT)  2.13
62. CGACCATCATGGACCGGTTTTCCCGGTAATCCGTATTTGCG (site CGACCATCTCG)  2.23
63. CGATCAACATGGACCGGTTTTCCCGGTAATCCGTATTTGCT (site CGATCAACTAG)  2.27
64. CGATAGACATGGACCGGTTTTCCCGGTAATCCGTATTTGAG (site CGATAGACTCT)  2.32
65. CGAGCATCATGGACCGGTTTTCCCGGTAATCCGTATTTGGT (site CGAGCATCTAC)  2.34
66. CGAGCCTCATGGACCGGTTTTCCCGGTAATCCGTATTTGCG (site CGAGCCTCTCG)  2.41
67. CGAGTATCATGGACCGGTTTTCCCGGTAATCCGTATTTGAC (site CAAGTATCTGT)  2.57
68. CGAGGGACATGGACCGGTTTTCCCGGTAATCCGTATTTGTC (site CGAGGGACTGA)  2.59
69. CGATAAACATGGACCGGTTTTCCCGGTAATCCGTATTTGCG (site CGATAAACTCG)  2.63
70. CGAGCAGCATGGACCGGTTTTCCCGGTAATCCGTATTTGCC (site CGAGCAGCTGG)  2.69
71. CGAGTATCATGGACCGGTTTTCCCGGTAATCCGTATTTGCT (site CGAGTATCTAG)  2.71
72. CGACATACATGGACCGGTTTTCCCGGTAATCCGTATTTGCG (site CGACATACTCG)  2.76
73. CGACAATCATGGACCGGTTTTCCCGGTAATCCGTATTTGCT (site CGACAATCTAG)  2.77
74. CGATAATCATGGACCGGTTTTCCCGGTAATCCGTATTTGCT (site CGATAATCTAG)  2.99
75. CGAGTATCATGGACCGGTTTTCCCGGTAATCCGTATTTGAC (site CGAGTATCTGT)  3.24
